Results taken from patent publication US20070128217A1 (priority 2003, published 2007).

Legend:
[1] = system: antibodies in sera from SARS patients (sera 1a, 1b, 2, 6, 37, 62, London, SARS-yellow, SARS-green); type: binding, human; set-up: Binding of serum 6 to linear peptides of protein X1 of SARS-CoV Urbani / Binding of serum 37 to linear peptides of protein X1 of SARS-CoV Urbani / Binding of serum 6 to looped/cyclic peptide (PEPSCAN-ELISA) / Binding of serum 37 to looped/cyclic peptide (PEPSCAN-ELISA) / Binding of serum 37 to looped/cyclic peptides of protein X1 of SARS-CoV Urbani / Binding of serum 6 to linear peptides of protein X2 / Binding of serum 37 to linear peptides of protein X2 / Binding of serum 37 to looped/cyclic peptides of protein X2 of SARS-CoV Urbani / Binding of serum 6 to linear peptides of protein M of SARS-CoV Urbani / Binding of serum 37 to linear peptides of protein M of SARS-CoV Urbani / Binding of serum 6 to looped/cyclic peptides of protein M of SARS-CoV Urbani / Binding of serum 37 to looped/cyclic peptides of protein M of SARS-CoV Urbani / Binding of serum 6 to linear peptides of protein X3 of SARS-CoV Urbani / Binding of serum 37 to linear peptides of protein X3 of SARS-CoV Urbani / Binding of serum 37 to looped/cyclic peptides of protein X3 of SARS-CoV Urbani / Binding of serum 6 to linear peptides of protein X4 of SARS-CoV Urbani / Binding of serum 37 to linear peptides of protein X4 of SARS-CoV Urbani / Binding of serum 37 to looped/cyclic peptides of protein X4 of SARS-CoV Urbani / Binding of serum 6 to linear peptides of protein X5 of SARS-CoV Urbani / Binding of serum 37 to linear peptides of protein X5 of SARS-CoV Urbani / Binding of serum 37 to looped/cyclic peptides of protein X5 of SARS-CoV Urbani / Binding of serum 6 to linear peptides of protein N of SARS-CoV Urbani / Binding of serum 37 to linear peptides of protein N of SARS-CoV Urbani / Binding of serum 6 to linear peptide (PEPSCAN-ELISA) / Binding of serum 1a to looped/cyclic peptides of protein N of SARS-CoV Urbani / Binding of serum 1b to looped/cyclic peptides of protein N of SARS-CoV Urbani / Binding of serum 2 to looped/cyclic peptides of protein N of SARS-CoV Urbani / Binding of serum 6 to looped/cyclic peptides of protein N of SARS-CoV Urbani / Binding of serum 37 to looped/cyclic peptides of protein N of SARS-CoV Urbani / Binding of serum 62 to looped/cyclic peptides of protein N of SARS-CoV Urbani / Binding of serum London to looped/cyclic peptides of protein N of SARS-CoV Urbani / Binding of serum SARS-green to looped/cyclic peptides of protein N of SARS-CoV Urbani: unit not given here
[2] = system: control sera (pooled serum of ten healthy LUMC hospital workers; commercial negative donor pooled serum from the Dutch bloodbank); type: binding, human; set-up: Binding of Control serum LUMC to linear peptides / Binding of Control serum Blood-bank to linear peptides / Binding of Control serum LUMC to looped peptides / Binding of Control Serum Blood-Bank to Looped peptides / Binding of Control serum LUMC to linear peptides of the protein M of SARS-CoV Urbani / Binding of Control serum Blood-bank to linear peptides of the protein M of SARS-CoV Urbani / Binding of Control serum LUMC to looped peptides of the protein M of SARS-CoV Urbani / Binding of Control Serum Blood-Bank to Looped peptides of the protein M of SARS-CoV Urbani: unit not given here
[3] = system: rabbit serum obtained by immunizing a rabbit with the SARS-CoV strain Frankfurt 1; type: binding; set-up: Binding of a rabbit serum to linear peptides / Binding of a rabbit serum to looped peptides / Rabbit serum linear peptides / Rabbit serum looped peptides / Binding of a rabbit serum to linear peptides of protein N of SARS-CoV Urbani (Rabbit serum linear peptides) / Binding of a rabbit serum to looped/cyclic peptides of protein N of SARS-CoV Urbani (Rabbit serum looped peptides): unit not given here
[4] = system: recombinant human anti-SARS-CoV antibody 03-018; type: binding; set-up: Binding of antibody 03-018 to linear peptides of the N protein of SARS-CoV Urbani / Binding of antibody 03-018 to looped/cyclic peptides of the N protein of SARS-CoV Urbani: unit not given here

Sequence | Binding of serum 1a to linear peptides of protein N of SARS-CoV Urbani [1] | Binding of serum 1a to looped/cyclic peptides of protein N of SARS-CoV Urbani [1] | Binding of serum 1b to linear peptides of protein N of SARS-CoV Urbani [1] | Binding of serum 1b to looped/cyclic peptides of protein N of SARS-CoV Urbani [1] | Binding of serum 2 to linear peptides of protein N of SARS-CoV Urbani [1] | Binding of serum 2 to looped/cyclic peptides of protein N of SARS-CoV Urbani [1] | Binding of serum 6 to looped/cyclic peptides of protein N of SARS-CoV Urbani [1] | Binding of serum 37 to looped/cyclic peptides of protein N of SARS-CoV Urbani [1] | Binding of serum 62 to looped/cyclic peptides of protein N of SARS-CoV Urbani [1] | Binding of serum London to looped/cyclic peptides of protein N of SARS-CoV Urbani [1] | Binding of serum SARS-green to looped/cyclic peptides of protein N of SARS-CoV Urbani [1] | Binding of serum SARS-yellow to looped/cyclic peptides of protein N of SARS-CoV Urbani [1] | Binding of Control Serum Blood-Bank to Looped peptides [2] | Binding of Control serum Blood-bank to linear peptides [2] | Binding of Control serum LUMC to linear peptides [2] | Binding of Control serum LUMC to looped peptides [2] | Binding of a rabbit serum to linear peptides of protein N of SARS-CoV Urbani (Rabbit serum linear peptides) [3] | Binding of a rabbit serum to looped/cyclic peptides of protein N of SARS-CoV Urbani (Rabbit serum looped peptides) [3] | Binding of antibody 03-018 to linear peptides of the N protein of SARS-CoV Urbani [4] | Binding of antibody 03-018 to looped/cyclic peptides of the N protein of SARS-CoV Urbani [4] | also measured
VRGGDGKMKELSPRW | 0.2 | 0.3 | 0.1 | 0.2 | 0.2 | 0.5 | 0.2 | 0.6 | 0.6 | 0.5 | 0.1 | 0.3 | 0.7 | 0.6 | 0.8 | 0.7 | 0.2 | 0.4 | 0.1 | 0.2 | Binding of serum 6 to linear peptides of protein N of SARS-CoV Urbani [1]: 0.2; Binding of serum 37 to linear peptides of protein N of SARS-CoV Urbani [1]: 0.6; Binding of serum 62 to linear peptides of protein N of SARS-CoV Urbani [1]: 0.6; Binding of serum London to linear peptides of protein N of SARS-CoV Urbani [1]: 0.4; Binding of serum SARS-green to linear peptides of protein N of SARS-CoV Urbani [1]: 0.4; Binding of serum SARS-yellow to linear peptides of protein N of SARS-CoV Urbani [1]: 0.7
VTKKSAAEASKKPRQ | – | 0.3 | – | 0.2 | – | 0.6 | 0.3 | 0.6 | 0.4 | 0.5 | 0.6 | 0.7 | 0.6 | 0.9 | 0.9 | 0.7 | 0.1 | 0.6 | 0.1 | 0.2 | Recognition of the peptide by sera of SARS-CoV infected individuals, and form (linear, looped/cyclic) in which it is recognized [1]: recognized in linear form
WYFYYLGTGPEASLP | 0.3 | 0.4 | 0.2 | 0.3 | 0.3 | 0.4 | 0.3 | 0.7 | 0.5 | 0.4 | 0.4 | 0.5 | 0.6 | 0.7 | 0.6 | 0.6 | 0.1 | 0.3 | 0.1 | 0.2 | Binding of serum 6 to linear peptides of protein N of SARS-CoV Urbani [1]: 0.2; Binding of serum 37 to linear peptides of protein N of SARS-CoV Urbani [1]: 0.9; Binding of serum 62 to linear peptides of protein N of SARS-CoV Urbani [1]: 0.8; Binding of serum London to linear peptides of protein N of SARS-CoV Urbani [1]: 0.5; Binding of serum SARS-green to linear peptides of protein N of SARS-CoV Urbani [1]: 0.3; Binding of serum SARS-yellow to linear peptides of protein N of SARS-CoV Urbani [1]: 0.7
